Assays:
[1] = tested on: BXSB.Yaa Cd8/IL15−/− mice; assay: mouse systemic lupus erythematosus (SLE) model treated with DIDS; type: in vivo
Description: BXSB.Yaa Cd8/IL15−/− mice are an established model for SLE. These mice display many characteristics of human SLE including hypergammaglobulinemia, circulating antinuclear antibodies and immune complex medicated glomerulonephritis, and ultimately succumb to disease around 24 weeks of age (Andrews et al. 1978, J Exp Med 148: 1198-215; Dixon et al. 1978, Arthritis Rheum 21: S64-7; Izui et al. 2000, Int Rev Immunol 19: 447-72). Genetic deletion of Cd8a and IL15 from the model results in a similar clinical phenotype which appears much early with survival averaging 14 weeks of age (McPhee et al. 2011, J Immunol 187:4695-4704)
Six week old male BXSB.Cg-Cd8a<tm1Mak> IL15<tm1Imx>/Dcr (abbreviated as BXSB.Yaa Cd8/IL15−/−) mice were retro-orbitally bled into heparin primed tubes to collect serum. 25 mg/kg (n=5) or 50 mg/kg DIDS (n=6) in 4% potassium bicarbonate with PBS or an equivalent volume of 4% potassium bicarbonate (n=2 and n=4) was administered intraperitoneally on day 0, and every seven days for five weeks. Mice were weighed weekly and serum was collected at 14 day intervals for a 5-week period. These mice were then aged for survival. The serum was analyzed by ELISA for IgG1 and IgG2b content. For the ELISA plates were coated with goat anti-mouse Ig (IgG1 or IgG2b) and incubated overnight at […] Plates were washed three times and P-nitrophenyl Phosphate (p-NPP, AMRESCO) was applied, incubated until standards developed adequately and read on a SpectraMax ELISA plate reader using SoftmaxPro software. Data are expressed as concentration of IgG (mg/ml) based on titration of isotype-specific purified mouse standards. […] Survival data was analyzed using Graphpad Prism software and assessed for statistical significance using both the log-rank Mantel Cox with (FIG. 20A for the 25 mg/kg group with a p value of 0.4289 and FIG. 20B for the 50 mg/kg group with a p value of 0.3698) and Gehan-Breslow-Wilcoxan tests (FIG. 21A for the 25 mg/kg group with a p value of 0.7003 and FIG. 21B for the 50 mg/kg group with a p value of 0.7505).

[2] = tested on: primary mouse splenic B-cells (B220+ IgM+); assay: radiosensitization of primary mouse B-cells by DIDS (Trypan blue dye exclusion); type: cell-based; conditions: 2.5 Gy gamma irradiation combined with DIDS, starting at 50 micromolar, 24 hours after irradiation
Procedure: Primary mouse splenic B-cells were isolated from normal, wild-type C57BL/6J mice as described in Example 1 and sorted with magnetic beads (Miltenyi) to enrich B220+ IgM+ B-cells. Purified B-cells were cultured in complete RPMI-1640 medium with 10% FBS with 0, 50, 100, or 150 micromolar DIDS. Cells were then subjected to either 0 (FIG. 14, filled circles) or 2.5 Gy (=250 rads; FIG. 14, open circles) of gamma irradiation in a Cs137 irradiator. Cell viability was subsequently scored for each condition and plotted relative to the no DIDS condition by manual cytometry using a hemacytometer and Trypan blue dye exclusion 24 hours after irradiation. The fraction of viable cells is reported normalized to the corresponding 0 μM DIDS condition. Error bars represent the standard error of the mean (S.E.M) from three independent experiments.

[3] = target: T1, Rad51 (Homo sapiens, UniProt Q06609); conditions: cited from earlier work
T1 sequence (Q06609 1-339): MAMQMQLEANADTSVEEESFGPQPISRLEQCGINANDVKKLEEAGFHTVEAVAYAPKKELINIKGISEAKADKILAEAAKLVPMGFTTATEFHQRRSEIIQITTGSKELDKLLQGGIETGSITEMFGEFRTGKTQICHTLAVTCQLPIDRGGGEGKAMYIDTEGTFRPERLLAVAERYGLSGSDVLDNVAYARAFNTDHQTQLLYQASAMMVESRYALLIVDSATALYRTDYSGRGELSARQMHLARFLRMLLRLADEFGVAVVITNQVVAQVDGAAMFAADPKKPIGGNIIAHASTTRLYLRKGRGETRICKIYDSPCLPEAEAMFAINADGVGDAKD

[4] = tested on: phosphor-H2AX foci in AID+ and AID− primary human CLL cells; assay: phospho-H2AX foci in primary human CLL cells treated with DIDS; type: cell-based; conditions: 30 μM DIDS, 2 days in culture, AID+ versus AID− samples
Description: Primary human CLL patient derived cells were obtained from peripheral bleeds collected at the time of routine clinical monitoring. Primary peripheral blood samples were collected via routine venipuncture into BD Vacutainer CPT Cell Separation Tubes (Becton Dickinson). Samples were centrifuged to separate red blood cells (RBC) and then inverted to resuspend the monocuclear cells in their own plasma. Samples were stored overnight at the site of collection at room temperature then shipped via courier to the site of analysis. Each sample was tested for AID expression status by reverse transcription PCR (RT-PCR) to detect presence of the human AID mRNA (see Example 11). Samples were then divided into AID+ (those showing detectable levels of AID mRNA) and AID− (those showing no detectable AID mRNA above background) groups. Multiple independent cultures from different AID+ and AID− samples were initiated in standard RPMI-1640 medium containing 10% FBS plus either 0 or 30 μM DIDS. After 2 days in culture, cells from each culture/condition were fixed using paraformaldehyde, mounted on microscope coverslips, permeabilized by washing with weak detergent, and were processed for immunofluorescent detection of the DNA double strand break marker phosphor-H2AX (primary antibody: cat. No. A300-081A, Bethyl Laboratories; 1:400 dilution). […]

With `O=S(=O)([O-])c1cc(N=C=S)ccc1/C=C/c1ccc(N=C=S)cc1S(=O)(=O)[O-].[Na+].[Na+]` [DIDS, 4,4′diisothiocyanostilbene-2,2′-disulfonic acid] the “IgG2b serum content (ELISA)” value ([1]; 25 mg/kg DIDS intraperitoneally every seven days) was “striking decrease”, the body weight ([1]; 25 mg/kg DIDS intraperitoneally every seven days for five weeks, versus controls) was “no weight difference” and the “IgG1 serum content (ELISA)” value ([1]; DIDS intraperitoneally every seven days) was “No significant difference”. The “fraction of viable cells” value [2] was “reduces viability significantly”, the “effect on Rad51 complexes and heteroduplex formation” value [3] was “disrupts Rad51 complexes and inhibits heteroduplex formation” and the “phosphor-H2AX foci per cell (DNA double strand break marker)” value [4] was “inhibits repair of AID-mediated genomic DNA double strand breaks (DSBs)”.
